Tested on: GCGR ECD
Experiment: TIRF-based smFRET of GCGR ECD dynamics in the presence of ligands
Parameters: species or system human
Settings: for smFRET histogram peak location (FRET efficiency), green peak / smFRET histogram peak location (FRET efficiency), red peak: 64 molecules (glucagon), 86 (MK0893)
From the text: We used smFRET to examine the conformational behavior of the GCGR ECD. smFRET is a well-established technique for studying the conformational dynamics of biomolecules at the single molecule level ([38], [39]), as it is sensitive to changes in distances in vitro and in cells ([40]). First, we specifically expressed and purified a GCGR with two surface-exposed cysteines at positions 49 (Cys49) of the ECD and 287 (Cys287) of the extracellular side of helix IV (Fig. S4B). These two cysteines were site-specifically labeled with a FRET donor (Alexa Fluor 555) and a FRET acceptor (Alexa Fluor 647). The efficiency of energy transfer will report the proximity between the donor and acceptor fluorophores and any changes in that distance ([41], [42]). To view receptors under smFRET, the doubly labeled GCGR was surface-immobilized on a PEG-passivated quartz microscope slide using a biotin–streptavidin interaction, as shown in Figure 1A. A biotinylated anti-FLAG antibody was used to capture the FLAG-tagged GCGR (Fig. 1A). A 532 nm laser was used to excite the donor fluorophore by creating the evanescent field from the total internal reflection of the laser beam (Fig. 1A). The emission signals from the donor and acceptor fluorophores were detected by an electron-multiplied back-illuminated CCD camera. […] A control experiment was performed to test the specific immobilization of GCGR–micelle using a biotinylated antibody to a PEG-passivated quartz surface (Fig. S5A). […] Single-molecule fluorescence time trajectories were assessed and analyzed using custom software written in MATLAB.
Single-molecule fluorescence data were recorded using a customized prism-based total internal reflection fluorescence imaging system based on an inverted IX73 microscope (Olympus) equipped with a X60 objective (Olympus, 1.49 numerical aperture, water) as described in earlier publications ([47], [48], [49]). Quartz microscope slides (G. Finkenbeiner) and coverslips (Fisher Scientific #1254588) were cleaned and passivated with polyethylene glycol (m-PEG-SVA) and 3% (w/w) biotin-PEG-SVA (Laysan Bio) to prevent nonspecific protein adsorption, as previously described ([30]). A sample chamber was prepared using double-sided tape (Scotch) on PEGylated slides and coverslips ([48]). The sample chamber was first coated with 0.02 mg/ml NeutrAvidin (ThermoFisher Scientific #PI31000) and washed with T50 buffer (10 mM Tris, pH 7.4, 50 mM NaCl). A […] biotin-conjugated anti-FLAG antibody (GenScript #A01429) was injected and incubated for 20 min, followed by washing with the imaging buffer (25 mM HEPES pH 7.5, 150 mM NaCl, 2 mM Trolox, 0.05% DDM, 0.01% CHS) to remove unbound biotinylated anti-FLAG antibody. The GCGR sample was diluted in an imaging buffer, introduced into the sample chamber, and incubated for 30 min. The sample chamber was washed extensively with an imaging buffer to remove any unbound receptors. Finally, an oxygen scavenging system, 5 mM protocatechuic acid (Sigma #37580), and 3 U/ml protocatechuate-3,4-dioxygenase (Oriental Yeast) ([50]) in the imaging buffer were applied before total internal reflection fluorescence illumination. The sample was excited at […] (CrystaLaser), and emission intensities from both donor and acceptor fluorophores were collected on an EMCCD camera (Andor Technology) with 100 ms integration time using a custom single-molecule data acquisition program ([48]). All single-molecule measurements were performed at room temperature. Single-molecule time trajectories were extracted using scripts written in IDL software (Harris Geospatial Solutions, Inc).

[1] = GCGR labeled Alexa Fluor 555/647 at Cys49 and Cys287, DDM-CHS micelle, room temperature, Gaussian fit
[2] = Gaussian fit of smFRET histogram, ligand-bound GCGR
[3] = calculated from peak centre with Förster equation, R0 51 Å, glucagon-bound GCGR

Compound: glucagon
- smFRET histogram peak location (FRET efficiency), blue peak (GCGR labeled Alexa Fluor 555/647 at Cys49 and Cys287, DDM-CHS micelle, room temperature, Gaussian fit, 64 molecules): 0.53
- smFRET histogram peak location (FRET efficiency), green peak [1]: 0.86
- smFRET histogram peak location (FRET efficiency), red peak [1]: 0.67
- smFRET histogram peak width, blue peak [2]: 0.24
- smFRET histogram peak width, green peak [2]: 0.14
- smFRET histogram peak width, red peak [2]: 0.11
- smFRET histogram relative peak area, blue peak [2]: 24%
- smFRET histogram relative peak area, green peak [2]: 59%
- smFRET histogram relative peak area, red peak [2]: 17%
- calculated distance, 0.53 FRET state [3]: 50.0 Å
- calculated distance, 0.67 FRET state [3]: 45.3 Å
- distance between the two fluorophores, 0.86 FRET state [3]: 37.7 Å

Compound: COc1ccc2cc(-c3cc(-c4cc(Cl)cc(Cl)c4)nn3[C@@H](C)c3ccc(C(=O)NCCC(=O)O)cc3)ccc2c1 [MK0893]
- smFRET histogram peak location (FRET efficiency), green peak [1]: 0.91
- smFRET histogram peak location (FRET efficiency), red peak [1]: 0.75
- smFRET histogram peak width, green peak [2]: 0.09
- smFRET histogram peak width, red peak [2]: 0.19
- smFRET histogram relative peak area, green peak [2]: 47%
- smFRET histogram relative peak area, red peak [2]: 53%
- effect on the FRET distribution relative to apo-GCGR (saturating concentration of antagonist, histogram from 86 molecules): no effect on the FRET distribution relative to the apo-GCGR

— article PMC10514447 (The Journal of Biological Chemistry, 2023)
